As a reminder, the koff is the rate constant with which the complex falls apart. Broadly, the kon is a measure of how fast the partners come together. Higher therefore signals fast association. Usually Kd stands for the constant that tells how readily two partners part at equilibrium.

“And” between values parts separate entries of the source, which are not always exact repeats. Equal values may be shown once.

Test [1] concerns the target T1, Prodan-G-actin (Oryctolagus cuniculus, UniProt P68135). Description: Competition-binding assay with GS1 and CapG on Prodan-G-actin. More on the design: F-actin is purified from rabbit skeletal muscle using a standard protocol; from tissue; host or cells: actin from rabbit skeletal muscle; CapG and GS1 expressed in E. coli M15; species or system rabbit. Here is the method:
FIG. 4: (A) CapG: (a), Prodan-G-actin (100 nM), (b), Prodan-G-actin-CapG; (c), same as (b) in the presence of 0.2 μM KabC; (B); GS1: (a), Prodan-G-actin 100 nM; (b), Prodan-G-actin-GS1; (c), same as (b) in the presence of 0.2 μM KabC.
Characterization of actin binding proteins: The actin-binding properties of the ABPs used in this study are evaluated from changes in the fluorescence emission spectrum of Prodan-actin and actin polymerization assays as described by Marriott et al (1988).
Trisoxazolemacrolides specifically compete with GS1 for the (+)-end binding site on actin. Gelsolin, a monomeric 80 kD cytoskeleton protein composed of six domains interacts with actin filaments in a complex, Ca^2+-dependent manner (Janmey et al, 1985; Burtnick et al, 1997). Gelsolin exerts two major effects once bound to an actin filament: first it severs the filament and second it remains tightly bound to the severed (+)-end and serves to block, or cap, further growth. […] Structural analyses of G-actin complexes with GS1 (McLaughlin et al, 1993) and KabC show these unrelated molecules bind to G-actin through common contact sites that include a patch of hydrophobic residues on the surface between sub-domains 1 and 3 and within the cleft that forms between the interface of sub-domains 1 and 3 (McLaughlin et al, 1993;). GS1 binding to Prodan-G-actin shifts the average energy of the fluorescence emission to the red and is accompanied by a decrease in the quantum yield (FIG. 4A) but not to the extent seen in the KabC-G-actin complex (FIG. 2).
Trisoxazolemacrolides specifically compete with CapG for the (+)-end binding site on actin. CapG, a Ca^2+-dependent, (+)-end actin filament capping protein, is found at high levels in macrophage cells where it regulates membrane ruffling and cell protrusions associated with phagocytosis and motility (Botelho et. al., 2000). […] The Ca^2+-dependent binding of CapG to Prodan-G-actin is accompanied by a dramatic blue-shift in the emission spectrum and an increase in quantum yield (FIG. 4B, curve b). The difference in fluorescence emission spectra between free and CapG-bound Prodan-G-actin is used to quantify the parameters for this binding reaction. The G-actin-CapG complex exists as a 1:1 complex and has a dissociation constant of 100 nM (data not shown). […] This conclusion is consistent with a comparison of high-resolution structures of G-actin with GS1 and KabC and a preliminary analysis of a 2.8 Angstrom structure of a CapG mutant (Vorobiev et al, PDB database, 2002). […] However the emission properties of the CapG-Prodan-G-actin complex are unaffected by the binding of LatA, DNAse and thymosin β4 (Tβ4), which is consistent with some structural data showing that these sequestering molecules bind closer to the ATP pocket and DNAse binding loop (Kabsch et al, 1990).

In test [2] the target is T1, Prodan-G-actin. Description: Kinetic analysis of binding to Prodan-G-actin (stopped-flow and slow phase). Also on record: F-actin is purified from rabbit skeletal muscle using a standard protocol; Prodan (Acrylodan) fluorophore, chemical label on the thiol of Cys374; from tissue; host or cells: rabbit skeletal muscle; species or system rabbit. Here is the method:
FIG. 3: Kinetic analyses of KabC binding of Prodan labeled G-actin. (A-B). Prodan-actin (0.1 μM) and KabC, loaded into separated syringes, were rapidly mixed within ˜1 msec dead-time. The concentrations of KabC were 0.0 μM (a), 1.0 μM (b), 1.5 μM (c), 2.0 μM (d) and 2.5 μM (data not shown), respectively. The decreases in emission intensity were well fitted with single exponential functions to determine the observed rate, kobs. The observed rates are plotted as a function of the [KabC] in panel (B).
Kinetic analysis of binding reactions. The kinetics of the KabC interaction with Prodan-actin is determined, using an Applied Photophysics SX.18MV Stopped-flow spectrometer, by following the decrease in the emission intensity of Prodan-actin at 25° C. Prodan was excited at 385 nm and emission was collected with a 470 nm (+/−5 nm) band-pass filter. In all cases the decrease in emission intensity was best fit with a single exponential function, which was then used to determine the observed rate, kobs. Kinetic constants of on rate (kon) and off rate (koff) were calculated according to the following equation: kobs=kon[KabC]+koff. The kinetics of the slower binding step observed in the interaction of KabC with Prodan-G-actin interaction is measured by measuring the ratio of fluorescence signals at 465 nm and 530 nm. The decay of this ratio is fit using a single exponential rate.

Turning to Kabiramide C [KabC], the “displacement of CapG from Prodan-G-actin” value in test [1] is “displace CapG from Prodan-G-actin in a Ca^2+-independent manner”. Moreover, in test [1] (dilution and competition-binding studies), the “stability of final G-actin-KabC complex” value was “extremely stable and does not dissociate at a concentration below the equilibrium constant”. Further, in test [1] (presence of EGTA), the “displacement of GS1 from Prodan-G-actin” value is on record as “displaces GS1”. Besides, the “binding steps in reaction with G-actin” value in test [2] is “two-step reaction”. The koff in test [2] (Prodan-actin 0.1 μM, Y-intercept of kobs vs [KabC]) is 5.6 s⁻¹. The substance further displayed a kon in test [2] (Prodan-actin 0.1 μM, slope of kobs vs [KabC]) of 5.45e+07 M⁻¹ s⁻¹. Further, in test [2] (decrease at 465 nm relative to red edge), the “rate of second, slower phase of G-actin binding” value was 0.008 s⁻¹ and 0.005 s⁻¹. Also, in test [2] (fluorescence quenching of Prodan-actin), the “rate of primary binding event” value stood at 30 s⁻¹. In test [2] (koff/kon, read-out: dissociation constant (Kd) from kinetic constants), the Kd is around 100 nM.

Source of the values: US7301020B2, “Macrolide analogs and methods for identifying same” (priority 2003, dated 2007).
